# Laboratory results as given in US6583145B1, “Thio-oxindole derivatives” (Wyeth, priority 1999, dated 2003).
# System: not given
# Experiment: not given
# Settings: not given
row,SMILES,melting point
1,"CC1(C)C(=S)Nc2ccc(-c3coc(C#N)c3)cc21 [Example 18, 4-(3,3-Dimethyl-2-thioxo-2,3-dihydro-1H-indol-5-yl)-2-furonitrile]",188 to 191 °C
2,"N#Cc1cccc(-c2ccc3c(c2)C2(CCCCC2)C(=S)N3)c1 [Example 2, 3-(1′,2′-Dihydro-2′-thioxospiro[cyclohexane-1,3′-[3H]indol]-5′-yl)benzonitrile]",> 231 °C (dec.)

# Now from value to compound:
row,melting point,SMILES
1,101 to 104 °C,"COc1cccc(-c2ccc3c(c2)C2(CCCCC2)C(=NO)N3)c1 [Example 49, 5′-(3-Methoxyphenyl)spiro[cyclohexane-1,3′-[3H]indol]-2′(1′H)-one Oxime]"
2,205 to 208 °C,"ON=C1Nc2ccc(-c3ccc(F)cc3)cc2C12CCCCC2 [Example 47, 5′-(4-Fluorophenyl)spiro[cyclohexane-1,3′-[3H]indol]-2′(1′H)-one Oxime]"
3,198 to 200 °C,"N#Cc1cccc(-c2ccc3c(c2)C2(CCCCC2)C(=NO)N3)c1 [Example 51, 5′-(3-Cyanophenyl)spiro[cyclohexane-1,3′-[3H]indol]-2′(1′H)-one Oxime]"

# System: rat uterine decidualization
# Experiment: Rat decidualization assay
# Settings: s.c.; average of the dose-response curves
row,Estimated average EC50 (decidual response),SMILES
1,0.10 mg/kg,C#C[C@]1(O)CC[C@H]2[C@@H]3CCC4=CC(=O)CC[C@@H]4[C@H]3C(=C)C[C@@]21CC [3-Ketodesogestrel]
